Test results taken from ChEMBL document CHEMBL1201862, “PubChem BioAssay data set” (2004).
Active and inactive are the calls of the source.

Columns and labels:
[1] = target: T1, Streptokinase A (Streptococcus pyogenes serotype M1, UniProt P10520); assay: viability-normalized secreted streptokinase activity reduction – plasminogen activation absorbance, OD405, dose response (AID 1914); assay type: functional, Streptococcus pyogenes M1 GAS;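 note: secreted streptokinase activity via plasminogen activation per viability signal from cell pellet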
T1 sequence (P10520 whole entry): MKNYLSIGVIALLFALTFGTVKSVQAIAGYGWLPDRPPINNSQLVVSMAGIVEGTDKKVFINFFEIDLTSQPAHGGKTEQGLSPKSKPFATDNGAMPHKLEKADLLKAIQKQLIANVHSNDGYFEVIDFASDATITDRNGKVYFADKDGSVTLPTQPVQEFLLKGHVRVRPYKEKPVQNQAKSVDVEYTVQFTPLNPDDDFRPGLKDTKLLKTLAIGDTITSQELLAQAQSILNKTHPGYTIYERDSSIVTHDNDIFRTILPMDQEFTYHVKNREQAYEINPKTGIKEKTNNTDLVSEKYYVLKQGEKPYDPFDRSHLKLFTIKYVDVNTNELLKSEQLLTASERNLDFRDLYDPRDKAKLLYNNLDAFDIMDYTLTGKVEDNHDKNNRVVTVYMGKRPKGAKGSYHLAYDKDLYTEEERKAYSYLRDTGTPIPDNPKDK

[2] = test system: Streptococcus sp. 'group A'; assay: Streptococcus pyogenes SK(-)GAS viability under kanamycin – luminescence, BacTiterGlo, confirmation, counter-screen for streptokinase expression inhibitor project, dose response (AID 1900); assay type: functional, organism-based
[3] = test system: Streptococcus; assay: GAS UMAA2166 growth inhibition – luminescence, BacTiterGlo, counter-screen for streptokinase expression inhibitor project, dose response (AID 1915); assay type: functional, organism-based;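 note: potency for reduction of bacterial viability or growth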
[4] = test system: H9c2; assay: cells; assay type: functional, cell-based; conditions: Rattus norvegicus, H9c2, Myocardium;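 note: confirmatory concentration-response retest of ultra-high-throughput screening hits for modulation of myocardial damage; cell death induced by hydrogen peroxide oxidative stress; compound pretreatment for 60 min then peroxide exposure for 2 h; potency is for protecting the cells against peroxide damage rather than for killing them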
[5] = target: FAD-linked sulfhydryl oxidase ALR (Homo sapiens, UniProt P55789); assay: ALR-catalysed DTT oxidation blockers – biochemical, H2O2 detection, luminescence, cherry-pick, dose response (AID 493248)
[6] = NIH3T3 cell viability loss – ATP luminescence, mouse fibroblasts, counter-screen, dose response (AID 2010); assay type: functional, cell-based;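 note: cells exposed to compound for about 90 hours before reading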
[7] = Trypanosoma cruzi growth suppression in host cells – NIH3T3 host cells, beta-gal luminescence, confirmation (AID 2044); assay type: functional, cell-based;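 note: intracellular parasites grown in NIH/3T3 mouse fibroblasts as host cells; luminescent beta-galactosidase reporter signal from transgenic T. cruzi replicating inside host cells; inhibitors lower the luminescence signal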
[8] = target: T2, Corticotropin-releasing factor receptor 2/Corticotropin-releasing factor-binding protein (Homo sapiens, UniProt P24387+Q13324); assay: activators of CRF receptor 2 with binding protein – uHTS hits, confirmation (AID 602473); assay type: functional; conditions: read-out: EC50_Mean
T2 sequence (Q13324 whole entry): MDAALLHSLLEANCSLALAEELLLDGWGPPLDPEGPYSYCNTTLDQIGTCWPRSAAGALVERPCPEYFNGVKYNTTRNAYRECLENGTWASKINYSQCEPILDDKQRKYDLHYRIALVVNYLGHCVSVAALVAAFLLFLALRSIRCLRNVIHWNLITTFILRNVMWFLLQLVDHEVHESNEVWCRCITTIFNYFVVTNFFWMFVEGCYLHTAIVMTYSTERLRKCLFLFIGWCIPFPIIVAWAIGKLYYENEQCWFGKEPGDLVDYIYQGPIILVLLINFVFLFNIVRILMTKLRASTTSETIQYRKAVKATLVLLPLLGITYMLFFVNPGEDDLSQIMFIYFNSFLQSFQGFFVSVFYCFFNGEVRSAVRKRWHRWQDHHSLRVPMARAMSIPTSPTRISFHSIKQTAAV
T2 sequence (P24387 whole entry): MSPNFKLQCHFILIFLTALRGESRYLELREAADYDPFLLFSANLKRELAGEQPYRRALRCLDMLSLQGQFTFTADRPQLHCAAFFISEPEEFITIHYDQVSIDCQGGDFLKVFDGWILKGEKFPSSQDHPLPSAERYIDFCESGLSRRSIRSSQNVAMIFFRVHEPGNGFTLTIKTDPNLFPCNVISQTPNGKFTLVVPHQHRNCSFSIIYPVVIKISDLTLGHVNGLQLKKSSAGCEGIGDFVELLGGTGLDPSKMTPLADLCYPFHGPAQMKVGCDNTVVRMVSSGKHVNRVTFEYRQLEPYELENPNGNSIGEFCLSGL

[9] = target: T3, Cytochrome P450 1A2 (Homo sapiens, UniProt P05177);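 note: PubChem cytochrome P450 panel assay, CYP1A2 panel member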
T3 sequence (P05177 whole entry): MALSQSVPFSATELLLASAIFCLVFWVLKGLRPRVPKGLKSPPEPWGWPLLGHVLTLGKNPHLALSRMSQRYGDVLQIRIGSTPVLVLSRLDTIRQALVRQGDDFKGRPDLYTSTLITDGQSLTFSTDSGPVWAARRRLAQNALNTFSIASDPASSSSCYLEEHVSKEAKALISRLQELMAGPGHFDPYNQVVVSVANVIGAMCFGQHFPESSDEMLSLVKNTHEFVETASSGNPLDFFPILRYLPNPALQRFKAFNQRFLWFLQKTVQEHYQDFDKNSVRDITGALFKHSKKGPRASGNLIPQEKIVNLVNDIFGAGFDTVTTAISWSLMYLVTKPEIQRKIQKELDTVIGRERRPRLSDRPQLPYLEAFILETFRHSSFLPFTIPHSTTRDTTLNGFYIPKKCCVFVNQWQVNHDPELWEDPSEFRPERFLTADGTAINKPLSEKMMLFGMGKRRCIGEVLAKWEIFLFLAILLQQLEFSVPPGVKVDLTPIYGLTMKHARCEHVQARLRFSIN

[10] = target: Cytochrome P450 2D6 (Homo sapiens, UniProt P10635);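 note: CYP2D6 member of a cytochrome P450 panel assay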
[11] = target: T4, Rac GTPase-activating protein 1 (Homo sapiens, UniProt Q9H0H5); assay: blockers of MgcRacGAP-driven Rac1 GTP hydrolysis – biochemical, ADP Hunter fluorescence, primary and confirmatory, confirmation (AID 624330); assay type: functional
T4 sequence (Q9H0H5 whole entry): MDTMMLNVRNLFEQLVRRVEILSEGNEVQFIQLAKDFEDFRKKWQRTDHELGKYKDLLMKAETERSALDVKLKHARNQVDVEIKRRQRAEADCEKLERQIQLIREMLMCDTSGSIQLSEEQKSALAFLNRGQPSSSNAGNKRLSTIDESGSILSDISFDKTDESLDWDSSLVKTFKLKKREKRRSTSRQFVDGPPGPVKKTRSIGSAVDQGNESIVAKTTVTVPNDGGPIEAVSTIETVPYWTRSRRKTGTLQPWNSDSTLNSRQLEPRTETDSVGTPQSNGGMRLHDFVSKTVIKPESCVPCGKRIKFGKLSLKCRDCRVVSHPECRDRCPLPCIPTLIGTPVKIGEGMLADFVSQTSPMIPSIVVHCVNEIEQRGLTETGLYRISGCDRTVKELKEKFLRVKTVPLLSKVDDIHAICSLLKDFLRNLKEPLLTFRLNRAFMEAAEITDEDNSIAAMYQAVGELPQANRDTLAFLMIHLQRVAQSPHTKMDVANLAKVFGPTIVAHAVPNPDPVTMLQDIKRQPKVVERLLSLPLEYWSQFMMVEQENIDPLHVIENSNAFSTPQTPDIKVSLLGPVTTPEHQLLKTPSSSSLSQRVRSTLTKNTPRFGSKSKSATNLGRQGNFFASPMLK

[12] = test system: INS1; assay: INS-1E survival protection against cytokine death – cell-based, luminescence, retest, dose response (AID 449756); assay type: functional; conditions: Rattus norvegicus;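 note: cell death triggered by IL-1 beta plus TNF-alpha plus IFN-gamma mixture; protective hits raise ATP signal compared with cytokine alone wells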
[13] = Luminescence Cell-Based Dose Retest to Confirm Inhibitors of Cancer Stem Cells. [Related pubchem assays (depositor defined):AID2717, AID2721]; assay type: functional; conditions: Homo sapiens

FAD-linked sulfhydryl oxidase ALR, sequence (P55789 whole entry): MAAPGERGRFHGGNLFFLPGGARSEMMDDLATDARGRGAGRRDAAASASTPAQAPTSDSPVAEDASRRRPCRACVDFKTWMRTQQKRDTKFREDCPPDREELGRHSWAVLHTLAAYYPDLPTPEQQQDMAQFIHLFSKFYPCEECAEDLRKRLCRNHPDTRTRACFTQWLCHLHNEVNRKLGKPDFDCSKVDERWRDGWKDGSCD
Cytochrome P450 2D6, sequence (P10635 whole entry): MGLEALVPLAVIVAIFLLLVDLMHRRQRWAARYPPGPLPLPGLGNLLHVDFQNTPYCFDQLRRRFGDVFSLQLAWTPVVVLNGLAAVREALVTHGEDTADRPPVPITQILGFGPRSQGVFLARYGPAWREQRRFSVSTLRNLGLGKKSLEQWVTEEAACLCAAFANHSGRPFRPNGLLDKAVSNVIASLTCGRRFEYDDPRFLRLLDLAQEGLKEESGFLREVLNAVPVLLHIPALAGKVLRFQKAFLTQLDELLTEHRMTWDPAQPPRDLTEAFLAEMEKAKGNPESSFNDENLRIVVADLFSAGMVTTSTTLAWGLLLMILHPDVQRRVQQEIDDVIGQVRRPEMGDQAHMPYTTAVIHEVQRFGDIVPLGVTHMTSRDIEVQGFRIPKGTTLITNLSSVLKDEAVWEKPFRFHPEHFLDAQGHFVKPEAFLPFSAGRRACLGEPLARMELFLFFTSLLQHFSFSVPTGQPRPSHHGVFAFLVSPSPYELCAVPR

SMILES: O=C(NNC(=S)NC(=O)c1ccccc1)c1ccc(O)cc1
- EC50 [1]: > 150 µM (not active)
- EC50 [2]: 4.64 µM (active)
- EC50 [3]: 52.4 µM (inconclusive)

SMILES: O=C(CCc1nc(O)c2ccccc2n1)N1CCN(S(=O)(=O)c2cccc(F)c2)CC1
- IC50 [4]: > 79 µM (inactive)

SMILES: O=C(COC(=O)CCc1nc(O)c2ccccc2n1)Nc1ccc2c(c1)OCO2
- IC50 [4]: > 79 µM (inactive)

SMILES: Oc1ccccc1CNc1cnc2ccccc2c1
- AC50 [5]: 37.9 µM (active)

SMILES: COc1ccc(-c2cc(C#N)nc(N3CCN(C)CC3)n2)cc1
- EC50 [6]: > 30 µM (not active)
- EC50 [7]: 1.95 µM (active)

SMILES: CN(Cc1nc(-c2ccccn2)no1)S(=O)(=O)c1ccc(Cl)cc1
- EC50 [8]: > 53 µM (inactive)

SMILES: COCCn1c(C2CCCCC2)nc2sc3ccccc3c(=O)c2c1=O
- EC50 [6]: > 60 µM (not active)
- EC50 [7]: 2.28 µM (active)

SMILES: O=C(Nc1nc2ccccc2n1Cc1ccccc1)c1ccc(COc2ccccc2[N+](=O)[O-])o1
- EC50 [6]: > 60 µM (inconclusive)
- AC50 [9]: 1.78 µM (inconclusive)
- AC50 [10]: 17.8 µM (inconclusive)
- EC50 [7]: 1.25 µM (active)

SMILES: CCn1cc(C(=O)NC(=S)Nc2ccccc2Br)cn1
- EC50 [1]: > 150 µM (not active)
- EC50 [2]: > 150 µM (not active)
- EC50 [3]: > 150 µM (not active)

SMILES: Cn1nnnc1SC1CC(=O)N(c2ccccc2)C1=O (configuration not stated)
- EC50 [6]: 7.1 µM (active)
- EC50 [7]: 3.7 µM (active)

SMILES: O=C(Nc1ccc(O)cc1)c1cc(S(=O)(=O)N2CCCC2)ccc1Cl
- AC50 [5]: 2.49 µM (active)

SMILES: Cc1cc(C)c(S(=O)(=O)Nc2ccc(O)cc2)c(C)c1
- AC50 [5]: 0.694 µM (active)
- IC50 [11]: 69.7 µM (active)

SMILES: CCCc1cc(N2CCN(C(=O)c3ccco3)CC2)n2c(nc3ccccc32)c1C#N
- IC50 [4]: > 79 µM (inactive)

SMILES: Cc1ccc(Cl)cc1N1CCN(Cc2cc3c(cc2O)CCC3)CC1
- EC50 [6]: > 60 µM (not active)
- EC50 [7]: 2.65 µM (active)

SMILES: COc1ccc(-n2c(/C=C/c3ccc(O)cc3)nc3ccccc3c2=O)cc1
- IC50 [4]: > 79 µM (inactive)

SMILES: Nc1cc(O)nc(SCc2csc(-c3ccccc3)n2)n1
- AC50 [5]: 5.71 µM (active)

SMILES: Nc1n[nH]c(Nc2ccccc2)n1
- AC50 [5]: 1.79 µM (active)

SMILES: CCC(CC)C(=O)c1c[nH]c(C(=O)NCc2ccccn2)c1
- AC50 [12]: > 260 µM (inactive)

SMILES: COc1ccc2c(c1)NC(C)(C)C=C2C
- EC50 [6]: > 60 µM (not active)
- EC50 [7]: 2.71 µM (active)

SMILES: CN1C(=O)C(=C/C=C/Nc2ccccc2)C(=O)N(C)C1=O
- EC50 [8]: > 53 µM (inactive)

SMILES: Cc1ccc2ccc(C(Nc3ccccn3)c3ccccc3)c(O)c2n1 (configuration not stated)
- EC50 [1]: > 150 µM (not active)
- EC50 [2]: 1.52 µM (active)
- EC50 [3]: 63.5 µM (active)

SMILES: COc1ccccc1N1CCN(CCc2nnc(S)n2-c2ccccc2)CC1
- AC50 [5]: 2.88 µM (active)

SMILES: COc1ccc(C2CC(c3ccccc3)=NN2C(=O)COC(=O)c2nc3nc(C)cc(C)n3n2)cc1 (configuration not stated)
- EC50 [6]: > 60 µM (not active)
- EC50 [7]: 3.19 µM (active)

SMILES: Cc1sc2nc(SCC(=O)NCc3ccco3)nc(O)c2c1C
- IC50 [4]: > 79 µM (inactive)

SMILES: Cc1ccc(/C=C2\C(=O)NC(=O)N(Cc3ccccc3Cl)C2=O)o1
- AC50 [5]: 0.494 µM (active)

SMILES: CCOC(=O)c1c(NC(=O)C[n+]2ccc(N(C)C)cc2)sc(C)c1C
- EC50 [6]: > 60 µM (not active)
- EC50 [7]: 1.44 µM (active)

SMILES: CC(c1nnc(S)n1-c1ccc(F)cc1)N1CCCCC1 (configuration not stated)
- AC50 [5]: 5.03 µM (active)

SMILES: CN1/C(=C\C(=O)c2ccco2)C(C)(C)c2ccccc21
- AC50 [12]: 6.55 µM (active)

SMILES: COc1ccc(OC)c(CCNC(=O)C(=O)Nc2ccc3nc4n(c(=O)c3c2)CCCCC4)c1
- EC50 [1]: 16.6 µM (active)
- EC50 [2]: 4.97 µM (active)
- EC50 [3]: 18.3 µM (active)

SMILES: COCCCN1C(=O)/C(=C/c2ccc(CNS(=O)(=O)c3ccccc3)o2)C(C(=O)OC)=C1C
- EC50 [1]: > 150 µM (not active)
- EC50 [2]: 28.9 µM (active)
- EC50 [3]: > 150 µM (not active)

SMILES: O=C(CCc1nc(O)c2ccccc2n1)NCCN1C(=O)S/C(=C\c2ccc(OC(F)F)cc2)C1=O
- IC50 [4]: > 79 µM (inactive)

SMILES: Cc1csc2nc(COC(=O)c3ccc(Cl)c([N+](=O)[O-])c3)cc(=O)n12
- IC50 [4]: > 79 µM (inactive)

SMILES: C[C@H](CO)N1C[C@H](C)[C@@H](CN(C)C(=O)Nc2ccc3c(c2)OCO3)Oc2c(NC(=O)Nc3ccc(C(F)(F)F)cc3)cccc2C1=O
- IC50 [4]: 21.3 µM (active)

SMILES: Cc1ccccc1OCC(=O)NNC(=O)Cn1[nH]c(=O)c2ccccc2c1=O
- IC50 [4]: > 79 µM (inactive)

SMILES: COc1cccc(-c2cc3nc(C)c(C)c(N4CCN(C(=O)c5ccoc5)CC4)n3n2)c1
- IC50 [4]: > 79 µM (inactive)

SMILES: Cn1c(/C=N/NC(=O)c2ccccc2)nc2ccccc21
- IC50 [4]: 13.5 µM (active)

SMILES: O=C(N/N=C/c1cccc(O)c1)c1cc(-c2ccc3c(c2)OCO3)[nH]n1
- IC50 [4]: > 79 µM (inactive)

SMILES: CNC(=S)N/N=C/c1ccc(N2CCOCC2)s1
- EC50 [6]: > 60 µM (not active)
- IC50 [11]: 28.3 µM (active)
- EC50 [7]: > 60 µM (not active)

SMILES: CCN(CC)c1ccc(/C=N/NC(=O)CCC(=O)NCc2ccccc2)c(O)c1
- EC50 [2]: 3.22 µM (active)
- AC50 [13]: 5.66 µM (active)
- AC50 [12]: 1.7 µM (active)
- EC50 [3]: 4.53 µM (active)

SMILES: Nc1ccc(Cl)cc1/C(=N/O)c1ccccc1
- AC50 [5]: 22.8 µM (active)

SMILES: CC(=N\Nc1ccccc1)/C(=N/O)C(=O)Nc1ccccc1
- AC50 [5]: 2.49 µM (active)
